The text below walks through data of US7358056B1, “Methods for modulating signal transduction mediated by TGF-β and related proteins” (Signal Pharmaceuticals, priority 1999, dated 2008).

Test [1] has as its system E1 and E2s (ubc5c and ubc7). In words: Coupled ubiquitin assay, ubiquitination of active site cysteines of E1 and E2. In kind it is biochemical. The note with it: 20 mM DTT. The method, then: Recombinant E1 (ubc5c) and E2 (ubc7) components were obtained from BostonBiochem (Cambridge, Mass.). Radiolabeled ubiquitin was generated by PKA-mediated incorporation of [^32P]-phosphate from […] to the PKA site of the GST-Ub fusion protein (pGEX KG expression vector). The ubiquitin assay buffer (UbB) was as follows: 50 mM Tris pH 7.6, 1 mM ATP, 0.2 mM EDTA, 5 mM MgCl2, 1 unit inorganic pyrophosphatase, 0.005% TRITON® X-100 detergent and 1 μM staurosporine. In a 0.030 mL reaction, the following components were present: 50-200 ng E1, 0.1-1 μg E2 and 5 μg GST-Ub. […] Reactions were analyzed by SDS-PAGE. The ubiquitination of active site cysteine residues of E1 and E2s (ubc Sc and ubc 7) was observed (FIGS. 9A-9C).

The subject of another test is HA-tagged Smad1. In words: BMP-induced Smad1 degradation in transfected COS cells (Western, anti-HA). The class given is cell-based. The note with it: 100 ng BMP 4 hours, 50-100 μM LLF. The method, then: HA-tagged Smad1 expression vector was transfected into COS cells. The transfected cells were then treated with 100 ng BMP for 4 hours in the absence or presence of 50-100 μM of the proteasome inhibitor Leu-Leu-Phe (LLF). The cells were lysed and equal amount of protein was loaded in each lane. Western analysis was performed using anti-HA antibody (BAbCo, Berkeley, Calif.).

The subject of another test is Smad1. In words: In vivo ubiquitination of Smad1 in transfected COS cells (immunoprecipitation, Western). In kind it is cell-based. The note with it: COS cells treated with LLF, with or without BMP. The method, then: To assess the in vivo ubiquitination of Smad1, a Smad1 expression vector was transfected into COS cells. The transfected cells were treated with BMP and the proteasome inhibitor LLF, as described above. The cells were then lysed and equal amounts of protein were used for immunoprecipitation using anti-HA antibody, to precipitate tagged-Smad1 protein. The immunoprecipitated Smad1 was run on SDS-PAGE, followed by a Western blot using anti-HA antibody or anti-ubiquitin antibody (BAbCo).

Another test has as its system WWP1 WW domains. In words: TRF binding assay of biotinylated PY motif peptides to GST-WW domain fusions. Conditions: for Interaction with WWP1 WW domains (TRF, peptide titration): GST-WW domains coated at 30 μg/mL overnight. On the procedure: Each domain was individually expressed as a GST fusion protein. A TRF binding assay was used to evaluate interactions of PY motif peptides with these domains or GST alone. WW domains were bound to a 96-well polystyrene assay plate (Costar) overnight at 4° C. in a 200 mM carbonate buffer (Pierce, Rockford, Ill.) at different concentrations (0, 1, 3, 10 μg/mL). Unbound WW domain was washed away with distilled, deionized water and the plates were blocked with 1% BSA/carbonate buffer for 2 hours at room temperature. The plates were then washed with Tris/TWEEN® buffer: 50 mM Tris pH 7.5, 100 mM NaCl, 1 mM EDTA, 1% BSA, 1 mM DTT, 0.1% TWEEN® 20 detergent, protease inhibitor cocktail (Boehringer-Mannheim).
PY motif peptides were synthesized with a C6-linker and biotin tag.
These biotinylated peptides were solvated in Tris/TWEEN® buffer and added to the assay plates (30 μM). The plates were incubated at 4° C. for varying amounts of capture time. The plates were then washed with PBS/0.1% TRITON® X-100 detergent and probed for 1 hour at room temperature with 1 μg/mL Europium-labeled streptavidin (DELFIA; Wallac Oy, Turku, Finland) in DELFIA Assay Buffer/0.1% Triton X100. The unbound Europium-labeled streptavidin was washed with PBS/0.1% TRITON® X-100 detergent. Europium was released for time-resolved fluorescence measurements with the DELFIA Enhancement Buffer. Measurements were made on either the DELFIA 1234 or Victor fluorometers.
Smad PY motif peptides from Smad 1, 2, 3, 5, 6 and 7 (Table 1) were then evaluated with the WW domains from WWP1 (FIGS. 6A-6D and 7A-7B). The GST-WW domain fusion proteins and GST alone were coated at 30 μg/mL overnight. After blocking the wells with BSA, the WW domain peptides were titrated with the Smad PY motif peptides.

Where a SMILES comes first, the peptide text is derived from it. Where no end group is shown, it is not given here. The star is where a group is joined. Biotin = O=C1N[C@H]2[C@H](CS[C@H]2CCCCC(=O)*)N1; Ahx = NCCCCCC(=O)O

Consider `O[C@@H](CS)[C@@H](O)CS` [DTT], for which, in test [1], the “Formation of thioester intermediates (ubiquitinated E1 and E2)” value was “prevented the formation of the thioester intermediates”. Regarding `CC(C)C[C@H](NC(=O)[C@@H](N)CC(C)C)C(=O)N[C@@H](Cc1ccccc1)C(=O)O` [LLF, Leu-Leu-Phe] (H-Leu-Leu-Phe-OH), the “Effect on BMP-induced Smad1 degradation” value with HA-tagged Smad1 is on record as “blocks BMP-induced Smad1 degradation”. In addition, the “Accumulation of high molecular weight ubiquitinated Smad1” value with Smad1 is reported as “accumulated more high molecular weight, ubiquitinated-Smad1 protein”. With “AGLTPPPGYLSEDG (SEQ ID NO:25) (also: biotinylated) [Smad 3, biotinylated Smad3 PY motif peptide]”, in the test on WWP1 WW domains, the “Interaction with WWP1 WW domains (TRF, peptide titration)” value (“Interaction with WWP1 WW domains” below) is “no measurable interaction”.

Consider “GPESPPPPYSRLSP (SEQ ID NO:21) (also: biotinylated) [Smad 6, biotinylated Smad6 PY motif peptide]”, for which the “Interaction with WWP1 WW domains” value in the test with WWP1 WW domains is “measurable interactions”. Turning to “IPETPPPGYISEDG (SEQ ID NO:24) (also: biotinylated) [Smad 2, biotinylated Smad2 PY motif peptide]”, in the test on WWP1 WW domains, the “Interaction with WWP1 WW domains” value was “no measurable interaction”.

“PADTPPPAYMPPDD (SEQ ID NO:23) (also: biotinylated) [Smad 5, biotinylated Smad5 PY motif peptide]”: the “Interaction with WWP1 WW domains” value in the test with WWP1 WW domains was “measurable interactions”. Consider “{Biotin-Ahx}-HPGTPPPPYTVGPG-NH2 (SEQ ID NO:28) [WBP1, reference compound]”, for which the “Binding to WWP1 WW domains (TRF)” value with WWP1 WW domains (peptide 30 μM, WW domains coated at 0, 1, 3, 10 μg/mL, GST alone as control) is “bound specifically”. With “{Biotin-Ahx}-PADTPPPAYLPPED-NH2 (SEQ ID NO:22) [Smad 1]”, the “Interaction with WWP1 WW domains” value with WWP1 WW domains is given as “no measurable interaction”.
